Consider ten compounds from PubChem BioAssay (NCI).

Each structure is given as a SMILES string.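 In this assay, cells in 96-well plates receive the compound at five concentrations for 48 hours. Endpoints are linearly interpolated between the surrounding concentrations. Here, GI50 denotes the concentration required for 50% inhibition of growth. Definition used: TGI = concentration required for complete inhibition of growth.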

Some test systems named below: HOP-62 NSCLC; PC-3 prostate; M14 melanoma; SK-MEL-5 melanoma; MALME-3M melanoma; SF-268 CNS; SF-539 CNS; LOX IMVI melanoma; RPMI-8226 leukemia; SK-MEL-2 melanoma.
What all share (assay): NCI anticancer screen, dose series, 48 h

For the compound `Cc1cc(NC(=S)SCc2ccc(F)cc2)c([N+](=O)[O-])cc1C`, the TGI was 68.1 µM with HOP-62 NSCLC; over 100 µM in the experiment on PC-3 prostate; over 100 µM in the experiment on M14 melanoma; 26 µM in the experiment on SK-MEL-5 melanoma; 77.7 µM with MALME-3M melanoma; over 100 µM in the experiment on SF-268 CNS. In addition, the TGI in the experiment on SF-539 CNS turned out to be 53.2 µM.

Take `COc1ccc(C(=O)c2cc(C)c(OC)c(C)c2)c(OC)c1O`: the GI50 in the experiment with HOP-62 NSCLC is 0.19 µM; in the experiment on PC-3 prostate, 0.0402 µM; in the experiment with LOX IMVI melanoma, 38.1 nM; in the experiment with RPMI-8226 leukemia, 0.0463 µM; with SK-MEL-2 melanoma, 0.211 µM; with SK-MEL-5 melanoma, 55.2 nM. The GI50 with MALME-3M melanoma is 0.0739 µM; with SF-268 CNS, 0.207 µM; in the experiment on SF-539 CNS, 20.6 nM. Moreover, the TGI is over 100 µM in the experiment with HOP-62 NSCLC; over 100 µM in the experiment with PC-3 prostate; over 100 µM in the experiment with LOX IMVI melanoma; over 62.6 µM in the experiment with RPMI-8226 leukemia; over 100 µM with SK-MEL-2 melanoma; 0.292 µM with SK-MEL-5 melanoma. Moreover, the TGI in the experiment with MALME-3M melanoma is over 100 µM; with SF-268 CNS, over 100 µM; in the experiment with SF-539 CNS, 0.0532 µM.

As to `CCCCC(CC)COC(=O)C[N+](C)(C)CCOC(c1ccccc1)c1ccccc1` (stereo not given), the GI50 in the experiment with HOP-62 NSCLC was 9.89 µM; with PC-3 prostate, 3.21 µM; with LOX IMVI melanoma, 1660 nM; with M14 melanoma, 1.63 µM; in the experiment with SK-MEL-2 melanoma, 1.95 µM; with SK-MEL-5 melanoma, 1730 nM. Further, the values for the GI50 with MALME-3M melanoma, in the experiment with SF-268 CNS and in the experiment with SF-539 CNS were 1.49 µM, 2.01 µM and 2320 nM, respectively. Also, the TGI in the experiment with HOP-62 NSCLC was 28.6 µM; in the experiment on PC-3 prostate, 11.7 µM; with LOX IMVI melanoma, 3.02 µM; in the experiment on M14 melanoma, 3.23 µM; in the experiment with SK-MEL-2 melanoma it was 4.13 µM; in the experiment on SK-MEL-5 melanoma, 3.1 µM. Also, the TGI with MALME-3M melanoma amounted to 3.09 µM; in the experiment with SF-268 CNS it was 4.77 µM; in the experiment on SF-539 CNS it was 5.27 µM.

As for `COC(=O)Nc1nc2ccc(C3(c4ccc(F)cc4)OCCO3)cc2[nH]1`, the GI50 in the experiment on HOP-62 NSCLC was 3.24 µM; in the experiment with PC-3 prostate, 0.341 µM; with LOX IMVI melanoma, 732 nM; with RPMI-8226 leukemia, 0.427 µM; in the experiment with SK-MEL-2 melanoma, 0.427 µM; in the experiment on SK-MEL-5 melanoma, 267 nM. For the same compound, the figures for the GI50 with SF-268 CNS and with SF-539 CNS were 2.07 µM and 196 nM, respectively. For the same compound, the TGI with HOP-62 NSCLC is over 100 µM; with PC-3 prostate, over 100 µM; in the experiment on LOX IMVI melanoma, over 100 µM; in the experiment with RPMI-8226 leukemia it was over 100 µM; with SK-MEL-2 melanoma, over 100 µM; in the experiment with SK-MEL-5 melanoma, 17.4 µM. For the same compound, the values for the TGI in the experiment on SF-268 CNS and in the experiment with SF-539 CNS were over 100 µM and 0.52 µM, respectively.

Take `O=C1c2cccnc2-c2nc(-c3ccc(Cl)cc3)cc3c2c1nc1ccccc13`: the GI50 in the experiment with PC-3 prostate is 47 µM; in the experiment with LOX IMVI melanoma, 35700 nM; in the experiment with RPMI-8226 leukemia, 56.5 µM; in the experiment on M14 melanoma, 19.9 µM; in the experiment on SK-MEL-2 melanoma, 76.5 µM; in the experiment with SK-MEL-5 melanoma, 17500 nM. Further, the GI50 in the experiment on MALME-3M melanoma was 20.2 µM; with SF-268 CNS it was 71.2 µM; with SF-539 CNS it was 59800 nM. In addition, the TGI with PC-3 prostate is over 100 µM; in the experiment on LOX IMVI melanoma it was over 100 µM; in the experiment on RPMI-8226 leukemia it was over 100 µM; in the experiment with M14 melanoma it was 58 µM; in the experiment on SK-MEL-2 melanoma it was over 100 µM; with SK-MEL-5 melanoma it was 80.8 µM. For the same compound, the TGI with MALME-3M melanoma is 91.5 µM; with SF-268 CNS, over 100 µM; with SF-539 CNS, over 100 µM.

On to `COc1cc2c3c(n(CCCN)c(=O)c2cc1OC)-c1ccc(C#N)cc1C3=O`, for which the GI50 in the experiment with HOP-62 NSCLC was 4.01 µM; in the experiment on PC-3 prostate, 15 µM; in the experiment with LOX IMVI melanoma, 13600 nM; in the experiment with RPMI-8226 leukemia, 19.1 µM; in the experiment with M14 melanoma it was 15.3 µM; with SK-MEL-2 melanoma it was 26.2 µM. Also, the values for the GI50 in the experiment with SK-MEL-5 melanoma, in the experiment with MALME-3M melanoma and in the experiment with SF-268 CNS were 16400 nM, 18.9 µM and 14.7 µM, respectively. Further, the TGI was 19.1 µM with HOP-62 NSCLC; 36.5 µM in the experiment on PC-3 prostate; 30 µM with LOX IMVI melanoma; 41.5 µM in the experiment with RPMI-8226 leukemia; 31.6 µM in the experiment on M14 melanoma; over 100 µM with SK-MEL-2 melanoma. In addition, the TGI in the experiment on SK-MEL-5 melanoma amounted to 32.6 µM; in the experiment with MALME-3M melanoma, 73.3 µM; in the experiment on SF-268 CNS, 42.4 µM.

As for `Cc1cc(N(CCC#N)CCC#N)ccc1/C=C(\NC(=O)/C=C/c1ccccc1)C(N)=O`, the TGI with HOP-62 NSCLC, with LOX IMVI melanoma, in the experiment with RPMI-8226 leukemia, in the experiment on M14 melanoma, in the experiment on SK-MEL-2 melanoma and in the experiment on SK-MEL-5 melanoma was over 100 µM each time. Further, the TGI in the experiment with MALME-3M melanoma, with SF-268 CNS and with SF-539 CNS was over 100 µM throughout.

As to `COc1c(C(=O)/C=C/c2ccccc2)c(O)cc2occc12`, the GI50 in the experiment with HOP-62 NSCLC is 11.3 µM; in the experiment on PC-3 prostate, 7.01 µM; with LOX IMVI melanoma, 1690 nM; with RPMI-8226 leukemia, 3.15 µM; in the experiment with M14 melanoma, 8.89 µM; in the experiment on SK-MEL-2 melanoma it was 12.4 µM. Besides, the GI50 in the experiment with SK-MEL-5 melanoma was 3870 nM; in the experiment on SF-268 CNS it was 4.05 µM; in the experiment on SF-539 CNS, 3220 nM. Besides, the TGI in the experiment with HOP-62 NSCLC worked out at 25.2 µM; with PC-3 prostate, 37.9 µM; with LOX IMVI melanoma, 3.31 µM; in the experiment with RPMI-8226 leukemia, 9.42 µM; in the experiment on M14 melanoma, 25.7 µM; with SK-MEL-2 melanoma, 25.2 µM. Also, the values for the TGI in the experiment on SK-MEL-5 melanoma, with SF-268 CNS and in the experiment on SF-539 CNS were 16.3 µM, 13.7 µM and 13.5 µM, respectively.

Turning to `O=C(Nc1cc(Cl)c(Cl)cc1Cl)C(=O)C1C(=O)NC(=S)NC1=O`, the TGI in the experiment with HOP-62 NSCLC, with LOX IMVI melanoma, in the experiment with RPMI-8226 leukemia, with M14 melanoma, with SK-MEL-2 melanoma and in the experiment on SK-MEL-5 melanoma was over 100 µM each time. The TGI in the experiment with MALME-3M melanoma, with SF-268 CNS and in the experiment with SF-539 CNS was over 100 µM throughout.

`CCOC(=O)N[C@@H]1C(CC(=O)OC)O[C@H]2OC(C)(C)O[C@H]21` (stereo not given in full): the TGI with HOP-62 NSCLC, with LOX IMVI melanoma, in the experiment with RPMI-8226 leukemia, with M14 melanoma, with SK-MEL-2 melanoma and with SK-MEL-5 melanoma was over 100 µM in each case. Moreover, the TGI in the experiment with MALME-3M melanoma, with SF-268 CNS and with SF-539 CNS was over 100 µM in each case.
